# Values quoted from earlier work in patent US6387861B1, “Detergent compositions” (Unilever Home & Personal Care USA division of Conopco, Inc., priority 1999, dated 2002).
# Like-named read-outs stand apart in the source and are kept apart here.
# Conditions: 20° C.
"Water Solubility (grams of solid to form a saturated solution in 100 grams of water, highly water-soluble materials)",SMILES,Water Solubility (other common materials)
,O=P(O)(O)OP(=O)(O)OP(=O)(O)O [Sodium tripolyphosphate anhydrous],15 g/100 g
>100 g/100 g,NC(N)=O [Urea],
,O=BO[O-].[Na+] [Sodium perborate anhydrous],3.7 g/100 g
